Measurements as given in PubChem BioAssay AID1259407 (Chemical Carcinogenesis Research Information System (CCRIS), 2018).
Calls of active or inactive are those of the source. No rule for the calls is given here.

System: CCRIS mutagenicity, Ames/micronucleus/aberration tests
Assay: CCRIS mutagenicity studies
[1] = Test System: AMES SALMONELLA TYPHIMURIUM, Strain/Indicator: TA98, Metabolic Activation: NONE, Method: STANDARD PLATE
[2] = Test System: AMES SALMONELLA TYPHIMURIUM, Strain/Indicator: TA100, Metabolic Activation: NONE, Method: STANDARD PLATE
[3] = Test System: AMES SALMONELLA TYPHIMURIUM, Strain/Indicator: TA1535, Metabolic Activation: NONE, Method: STANDARD PLATE
[4] = Test System: AMES SALMONELLA TYPHIMURIUM, Strain/Indicator: TA1537, Metabolic Activation: NONE, Method: STANDARD PLATE
[5] = Test System: AMES SALMONELLA TYPHIMURIUM, Strain/Indicator: TA1538, Metabolic Activation: NONE, Method: STANDARD PLATE
[6] = Test System: AMES SALMONELLA TYPHIMURIUM, Strain/Indicator: TA98, Metabolic Activation: NONE, Method: PREINCUBATION
[7] = Test System: AMES SALMONELLA TYPHIMURIUM, Strain/Indicator: TA100, Metabolic Activation: NONE, Method: PREINCUBATION

Measured: mutagenic call

O=C(O)c1ccc(N=Nc2ccc(O)c(C(=O)O)c2)cc1
inactive: [1] inactive; negative | Test System: AMES SALMONELLA TYPHIMURIUM, Strain/Indicator: TA98, Metabolic Activation: RAT, LIVER, S-9, AROCLOR 1254, Method: STANDARD PLATE inactive; negative | [2] inactive; negative | Test System: AMES SALMONELLA TYPHIMURIUM, Strain/Indicator: TA100, Metabolic Activation: RAT, LIVER, S-9, AROCLOR 1254, Method: STANDARD PLATE inactive; negative | [3] inactive; negative | Test System: AMES SALMONELLA TYPHIMURIUM, Strain/Indicator: TA1535, Metabolic Activation: RAT, LIVER, S-9, AROCLOR 1254, Method: STANDARD PLATE inactive; negative | [4] inactive; negative | Test System: AMES SALMONELLA TYPHIMURIUM, Strain/Indicator: TA1537, Metabolic Activation: RAT, LIVER, S-9, AROCLOR 1254, Method: STANDARD PLATE inactive; negative | [5] inactive; negative | Test System: AMES SALMONELLA TYPHIMURIUM, Strain/Indicator: TA1538, Metabolic Activation: RAT, LIVER, S-9, AROCLOR 1254, Method: STANDARD PLATE inactive; negative | Test System: CHINESE HAMSTER V-79, Strain/Indicator: V-79 (HGPRT)/8-AZAGUANINE, Metabolic Activation: NONE inactive; negative | Test System: CHINESE HAMSTER V-79, Strain/Indicator: V-79 (HGPRT)/8-AZAGUANINE, Metabolic Activation: RAT, LIVER, S-9 inactive; negative

CC(=O)OCCO
inactive: [1] inactive; negative | Test System: AMES SALMONELLA TYPHIMURIUM, Strain/Indicator: TA98, Metabolic Activation: RAT, LIVER, MICROSOMES, Method: STANDARD PLATE inactive; negative | [2] inactive; negative | Test System: AMES SALMONELLA TYPHIMURIUM, Strain/Indicator: TA100, Metabolic Activation: RAT, LIVER, MICROSOMES, Method: STANDARD PLATE inactive; negative

COc1cc(Nc2c3ccccc3nc3ccccc23)ccc1NS(C)(=O)=O
active: Test System: MOUSE LYMPHOMA, Strain/Indicator: L5178Y (TK+/TK-), Metabolic Activation: NONE, Method: SUSPENSION/PLATE active; positive

Cc1ccc(C(O)(P(=O)(O)O)P(=O)(O)O)cc1N(CCCl)CCCl
active: Test System: AMES SALMONELLA TYPHIMURIUM, Strain/Indicator: TA1535, Metabolic Activation: RAT, LIVER, S-9, AROCLOR, Method: STANDARD PLATE active; positive
inactive: [1] inactive; negative | Test System: AMES SALMONELLA TYPHIMURIUM, Strain/Indicator: TA98, Metabolic Activation: RAT, LIVER, S-9, AROCLOR, Method: STANDARD PLATE inactive; negative | [2] inactive; negative | Test System: AMES SALMONELLA TYPHIMURIUM, Strain/Indicator: TA100, Metabolic Activation: RAT, LIVER, S-9, AROCLOR, Method: STANDARD PLATE inactive; negative | [3] inactive; negative | [4] inactive; negative | Test System: AMES SALMONELLA TYPHIMURIUM, Strain/Indicator: TA1537, Metabolic Activation: RAT, LIVER, S-9, AROCLOR, Method: STANDARD PLATE inactive; negative | [5] inactive; negative | Test System: AMES SALMONELLA TYPHIMURIUM, Strain/Indicator: TA1538, Metabolic Activation: RAT, LIVER, S-9, AROCLOR, Method: STANDARD PLATE inactive; negative

O[C@@H]1[C@@H]2O[C@@H]2c2c(ccc3cc4c(ccc5ccccc54)nc23)[C@H]1O
active: [6] active; positive | [7] active; positive | Test System: CHINESE HAMSTER V-79, Strain/Indicator: V-79/8-AZAGUANINE, Metabolic Activation: NONE active; positive

O=C(O)c1ccc(/C=N/n2nnc3c([nH]c4ccccc43)c2=O)cc1
inactive: Test System: AMES SALMONELLA TYPHIMURIUM, Strain/Indicator: TA102, Metabolic Activation: NONE, Method: PREINCUBATION inactive; negative
active: Test System: AMES SALMONELLA TYPHIMURIUM, Strain/Indicator: TA97, Metabolic Activation: NONE, Method: PREINCUBATION active; positive | Test System: AMES SALMONELLA TYPHIMURIUM, Strain/Indicator: TA97, Metabolic Activation: RAT, LIVER, S-9, AROCLOR 1254 (10%), Method: PREINCUBATION active; positive | [6] active; positive | Test System: AMES SALMONELLA TYPHIMURIUM, Strain/Indicator: TA98, Metabolic Activation: RAT, LIVER, S-9, AROCLOR 1254 (10%), Method: PREINCUBATION active; positive | [7] active; positive | Test System: AMES SALMONELLA TYPHIMURIUM, Strain/Indicator: TA100, Metabolic Activation: RAT, LIVER, S-9, AROCLOR 1254 (10%), Method: PREINCUBATION active; positive | Test System: AMES SALMONELLA TYPHIMURIUM, Strain/Indicator: TA102, Metabolic Activation: RAT, LIVER, S-9, AROCLOR 1254 (10%), Method: PREINCUBATION active; positive

O=[N+]([O-])c1ccc(I)c([N+](=O)[O-])c1
active: Test System: AMES SALMONELLA TYPHIMURIUM, Strain/Indicator: TA98(1,8-DNP6), Metabolic Activation: NONE, Method: PREINCUBATION active; positive | Test System: AMES SALMONELLA TYPHIMURIUM, Strain/Indicator: TA98(NR), Metabolic Activation: NONE, Method: PREINCUBATION active; positive | [6] active; positive
